Source: patent publication US4839374A, “4-((Bicyclic heterocyclyl)-methyl and -hetero)-piperidines” (Janssen Pharmaceutica, N.V., priority 1987, dated 1989)
Like-named read-outs stand apart in the source and are kept apart here.

Tests used:
effects of serotonin = assay: Antagonistic activity on the effects of serotonin in the gastric lesion test (lesions induced by compound 48/80); assay type: in vivo, rats of a Wistar inbred strain; settings: Rattus norvegicus, po, read-out: gastric lesion test ED50
Protocol: Antagonistic activity on the effects of serotonin in the gastric lesion test.
The shock, followed by dead, can be avoided if the rats are pretreated with a classical H 1 antagonist.
Male rats of a Wistar inbred strain, weighing 220-250 g, were starved overnight, water being available ad libitum. The test compounds were administered orally as a solution or as a suspension in aqueous medium. A control rat and a "blank" rat received the test compound. One hour later 5-[4-(diphenylmethyl)1-piperazinylmethyl]-1-methyl-1H-benzimidazole-2-methanol was administered subcutaneously to all rats at the dose of 2.5 mg/kg. […] Four hours after the intravenous injection of compound 48/80, the rats were decapitated and the stomachs were removed. Subsequently the stomachs were inspected for distension and contents (blood, fluid, food) and thoroughly rinsed. The macroscopic lesions were scored from 0 to +++, 0 corresponding to complete absence of visible lesions and the highest score corresponding to reddish rough patches covering more than half the glandular area.
The second column of tables 1-4 show for a number of compounds of formula (I) the doses (in mg/kg body weight) at which the distension of the stomach as well as the lesions in the glandular area of the stomach are completely absent in 50% of the test rats (ED50 -value).

[1] = tested on: compound 48/80-induced lethality; assay: Protection of rats from compound 48/80-induced lethality; assay type: in vivo, rats of an inbred Wistar strain; settings: Rattus norvegicus, 4 h, read-out: Compound 48/80 lethality test in rats ED50, s.c. or p.o. 1 h before compound 48/80 0.5 mg/kg i.v.; protection of 50% of animals, survival after 4 hours
How it was run: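 Male inbred Wistar rats (240-260 g), starved overnight, dosed subcutaneously or orally with compound or 0.9% NaCl before compound 48/80 challenge. Survival at 4 hours counted as protection. ED50 in mg/kg is the dose protecting 50% of animals from lethality.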

[2] = compound 48/80 1 mg/kg i.v., distension and lesions of stomach completely absent in 50% of rats

Row | Structure (SMILES) | ED50 (effects of serotonin) [mg/kg] | ED50 [1] [mg/kg] | ED50 (effects of serotonin; [2]) [mg/kg]
1 | S=C=NCCN1CCC(Cc2nc3ccccc3n2Cc2ccco2)CC1 [Compound 399] | 0.04 | 0.02 | –
2 | Cc1nc2n(c(=O)c1CCN1CCC(Cc3nc4cccnc4n3Cc3ccco3)CC1)CCS2 [Compound 168] | – | 0.04 | 0.63
3 | Nc1ccccc1C(=O)NCCN1CCC(Cc2nc3ccccc3n2Cc2ccc(F)cc2)CC1 [Compound 468, 2-amino-N-[2-[4-[[1-[(4-fluorophenyl)methyl]-1H-benzimidazol-2-yl]methyl]-1-piperidinyl]ethyl]benzamide] | – | 0.02 | 0.63
4 | Oc1ccc(CCN2CCC(Cc3nc4ccccc4n3Cc3ccc(F)cc3)CC2)cc1 [Compound 504, 4-[2-[4-[[1-[(4-fluorophenyl)methyl]-1H-benzimidazol-2-yl]methyl]-1-piperidinyl]ethyl]phenol] | – | 0.08 | 0.63
5 | COc1ccc(CCN2CCC(Cc3nc4cccnc4n3Cc3ccc(F)cc3)CC2)cc1 [Compound 236] | – | 0.08 | 0.63
6 | c1ccc(Cn2c(CC3CCN(CCNc4nccs4)CC3)nc3cccnc32)cc1 [Compound 362] | – | 0.08 | 0.63
7 | O=c1[nH]c2ccccc2n1CCCN1CCC(Cc2nc3ccccc3n2Cc2ccc(F)cc2)CC1 [Compound 207] | 0.08 | 0.08 | –
8 | CC(C)NC(=O)CCN1CCC(Cc2nc3cccnc3n2Cc2ccc(F)cc2)CC1 [Compound 143, 4-[[3-[(4-fluorophenyl)methyl]-3H-imidazo[4,5-b]pyridin-2-yl]methyl]-N-(1-methylethyl)-1-piperidinepropanamide] | – | 0.04 | 0.63
9 | Cc1nc2n(c(=O)c1CCN1CCC(Oc3nc4ccccc4n3Cc3ccc(F)cc3)CC1)CCCC2 [Compound 264] | – | 0.04 | 0.63
10 | CN1CCC(Cc2nc3cccnc3n2Cc2ccc(F)cc2)CC1 [Compound 90] | – | 0.01 | 0.31
11 | Fc1ccc(Cn2c(CC3CCN(C4CCCCC4)CC3)nc3ccccc32)cc1 [Compound 99] | – | 0.04 | 0.31
12 | OCCN1CCC(Cc2nc3ccccc3n2Cc2ccc(F)cc2)CC1 [Compound 107, 4-[[1-[(4-fluorophenyl)methyl]-1H-benzimidazol-2-yl]methyl]-1-piperidineethanol] | 0.08 | 0.04 | –
13 | Cc1nc2scc(C)n2c(=O)c1CCN1CCC(Cc2nc3cccnc3n2Cc2ccco2)CC1 [Compound 151, 6-[2-[4-[[3-(2-furanylmethyl)-3H-imidazo[4,5-b]pyridin-2-yl]methyl]-1-piperidinyl]ethyl]-3,7-dimethyl-5H-thiazolo[3,2-a]pyrimidin-5-one] | – | 0.02 | 0.16
14 | CCOC(=O)c1csc(NCCN2CCC(Cc3nc4ccccc4n3Cc3ccc(F)cc3)CC2)n1 [Compound 455, ethyl 2-[(2-[4-[(1-[(4-fluorophenyl)methyl]-1H-benzimidazol-2-yl]methyl]-1-piperidinyl]ethyl]amino]-4-thiazolecarboxylate] | – | 0.04 | 0.63
15 | Fc1ccc(Cn2c(CC3CCN(CCn4c(S)nc5cncnc54)CC3)nc3ccccc32)cc1 [Compound 495, 9-[2-[4-[[1-[(4-fluorophenyl)methyl]-1H-benzimidazol-2-yl]methyl]-1-piperidinyl]ethyl]-9H-purine-8-thiol] | – | 0.04 | 0.16
16 | O=c1c2ccccc2[nH]c(=S)n1CCN1CCC(Cc2nc3ccccc3n2Cc2ccc(F)cc2)CC1 [Compound 460, 3-[2-[4-[[1-[(4-fluorophenyl)methyl]-1H-benzimidazol-2-yl]methyl]-1-piperidinyl]ethyl]-2,3-dihydro-2-thioxo-4(1H)-quinazolinone] | – | 0.08 | 0.63
17 | O=c1[nH]c2ccccc2c(=O)n1CCCCN1CCC(Cc2nc3ccccc3n2Cc2ccc(F)cc2)CC1 [Compound 489, 3-[4-[4-[[1-[(4-fluorophenyl)methyl]-1H-benzimidazol-2-yl]methyl]-1-piperidinyl]butyl]-2,4(1H,3H)-quinazolinedione] | – | 0.08 | 0.63
18 | CNC(=S)NCCN1CCC(Cc2nc3ccccc3n2Cc2ccc(F)cc2)CC1 [Compound 428, N-[2-[4-[[1-[(4-fluorophenyl)methyl]-1H-benzimidazol-2-yl]methyl]-1-piperidinyl]ethyl]-N'-methylthiourea] | – | 0.04 | 0.01
19 | Fc1ccc(Cn2c(CC3CCN(CCNc4ncccn4)CC3)nc3ncccc32)cc1 [Compound 348, N-[2-[4[[1-[(4-fluorophenyl)methyl]-1H-imidazo[4,5-b]pyridin-2-yl]methyl]-1-piperidinyl]ethyl]-2-pyrimidinamine] | 0.04 | 0.04 | –

Row | Structure (SMILES) | ED50 (effects of serotonin) [mg/kg] | ED50 [1] [mg/kg] | ED50 (effects of serotonin; [2]) [mg/kg]
20 | CCOCCN1CCC(Cc2nc3cccnc3n2Cc2ccc(F)cc2)CC1 [Compound 126] | – | 0.04 | 0.63
21 | Cc1nc2ccccn2c(=O)c1CCN1CCC(Sc2nc3ccccc3n2Cc2ccc(F)cc2)CC1 [Compound 244, 3-[2-[4-[[1-[(4-fluorophenyl)methyl]-1H-benzimidazol-2-yl]thio]-1-piperidinyl]-ethyl]-2-methyl-4H-pyrido[1,2-a]pyrimidin-4-one] | – | 0.16 | 0.31
22 | Fc1ccc(Cn2c(CC3CCN(CCNc4nc5cnccc5s4)CC3)nc3ccccc32)cc1 [Compound 332, N-[2-[4-[[1-[(4-fluorophenyl)methyl]-1H-benzimidazol-2-yl]methyl]-1-piperidinyl]ethyl]thiazolo[4,5-c]pyridin-2-amine] | 0.08 | 0.08 | –
23 | Cc1nc2ccccn2c(=O)c1CCN1CCC(Cc2nc3cccnc3n2Cc2ccco2)CC1 [Compound 180] | – | 0.01 | 0.31
24 | N#CCN1CCC(Cc2nc3ccccc3n2Cc2ccc(F)cc2)CC1 [Compound 283] | – | 0.04 | 0.63
25 | Cn1ccnc1NCCN1CCC(Cc2nc3ccccc3n2Cc2ccc(F)cc2)CC1 [Compound 452, 4-[[1-[(4-fluorophenyl)methyl]-1H-benzimidazol-2-yl]methyl]-N-(1-methyl-1H-imidazol-2-yl)-1-piperidineethanamine] | – | 0.16 | –
26 | c1ccc(Cn2c(CC3CCN(CCNc4ncccn4)CC3)nc3ccccc32)cc1 [Compound 344] | – | 0.02 | –
27 | Cc1nc2n(c(=O)c1CCN1CCC(Cc3nc4cccnc4n3Cc3ccc(F)cc3)CC1)CCCS2 [Compound 205, 7-[2-[4-[[3-[(4-fluorophenyl)methyl]-3H-imidazo[4,5-b]pyridin-2-yl]methyl]-1-piperidinyl]ethyl]-3,4-dihydro-8-methyl-2H,6H-pyrimido[2,1-b][1,3]thiazin-6-one] | – | 0.08 | –
28 | Cc1nc2ccccn2c(=O)c1CCN1CCC(Cc2nc3ccncc3n2Cc2ccc(F)cc2)CC1 [Compound 270] | – | 0.08 | –
29 | C=CCN1CCC(Cc2nc3cccnc3n2Cc2ccc(F)cc2)CC1 [Compound 142, 3-[(4-fluorophenyl)methyl]-2-[[1-(2-propenyl)-4-piperidinyl]methyl]-3H-imidazo-[4,5-b]pyridine] | – | 0.02 | –
30 | c1ccc(Cn2c(CC3CCN(CCNc4ncccn4)CC3)nc3cccnc32)nc1 [Compound 340] | – | 0.08 | –
31 | Cc1nc2n(c(=O)c1CCN1CCC(Cc3nc4cccnc4n3Cc3ccco3)CC1)CCCS2 [Compound 178] | – | 0.02 | –
32 | O=C(NCCN1CCC(Cc2nc3ccccc3n2Cc2ccc(F)cc2)CC1)c1ccoc1 [Compound 434, N-[2-[4-[[1-[(4-fluorophenyl)methyl]-1H-benzimidazol-2-yl]methyl]-1-piperidinyl]ethyl]-3-furancarboxamide] | – | 0.0025 | –
33 | COc1ccc(CCN2CCC(Cc3nc4ccccc4n3Cc3cccs3)CC2)cc1 [Compound 232] | – | 0.08 | –
34 | O=C(NCCN1CCC(Cc2nc3ccccc3n2Cc2ccc(F)cc2)CC1)c1cc(O)c2ccccc2n1 [Compound 444, N-[2-[4-[[1-[(4-fluorophenyl)methyl]-1H-benzimidazol-2-yl]methyl]-1-piperidinyl]ethyl]-4-hydroxy-2-quinolinecarboxamide] | – | 0.16 | –
35 | Cc1ccc(Cn2c(CC3CCN(CCO)CC3)nc3ccccc32)cc1 [Compound 113, 4-[[1-[(4-methylphenyl)methyl]-1H-benzimidazol-2-yl]methyl]-1-piperidineethanol] | – | 0.08 | –
36 | Fc1ccc(Cn2c(SC3CCN(CCOc4ncccn4)CC3)nc3ccccc32)cc1 [Compound 393, 1-[(4-fluorophenyl)methyl]-2-[[1-[2-(2-pyrimidinyloxy)ethyl]-4-piperidinyl]thio]-1H-benzimidazole] | – | 0.08 | –
37 | CCOC(=O)NCCN1CCC(Cc2nc3ccccc3n2Cc2cscn2)CC1 [Compound 248] | – | 0.04 | –
38 | CCOC(=O)NCCN1CCC(Sc2nc3ccccc3n2Cc2ccc(F)cc2)CC1 [Compound 243, ethyl [2-[4-[[1-[(4-fluorophenyl)methyl]-1H-benzimidazol-2-yl]-thio]-1-piperidinyl)ethyl]carbamate] | – | 0.04 | –
